Reference: patent US9073862B2, “Substituted 2-oxy-quinoline-3-carboxamides as KCNQ2/3 modulators” (Grünenthal GmbH, priority 2010, dated 2015)

Key:
[1] = tested on: withdrawal reflex of the rat tail (tail flick) in response to a radiant heat beam; assay: Low-intensity tail flick test (rat); assay type: in vivo; conditions: po, peroral; for ED50: at time of maximum efficacy
Description: Method II. Low-Intensity Tail Flick Test (Rat)
In the low-intensity tail flick test, the determination of the antinociceptive effect of the compounds according to the invention towards an acute noxious thermal stimulus is carried out by measuring the withdrawal reflex of the rat tail (tail flick) in response to a radiant heat beam (analgesia meter; model 2011 of the company Rhema Labortechnik, Hofheim, Germany) according to the method described by D'Amour and Smith (J. Pharm. Exp. Ther. 72, 74 79 (1941). To this end, the rats were placed in a plexiglas restrainer, and a low-intensity radiant heat beam (48° C.) was focused onto the dorsal surface of the tail root. The stimulus intensity was adjusted to result in a mean pre-drug control withdrawal latency of about 7 s, thus also allowing a supraspinal modulation of the spinally mediated acute nociceptive reflex. A cutoff time of 30 s was applied to avoid tissue damage. Male Sprague-Dawley rats (Janvier, Le Genest St. Isle, Frankreich) with weights of 200-250 g were used. 10 rats were used per group. Before administration of a compound according to the invention, the animals were pre-tested twice in the course of five minutes and the mean of these measurements was calculated as the pre-test mean. The antinociceptive effect was determined at 20, 40 and 60 min after peroral compound administration. The antinociceptive effect was calculated based on the increase in the tail withdrawal latency according to the following formula and is expressed as percentage of the maximum possible effect (MPE [%]): MPE=[(T1−T0)/(T2−T0)]*100
In this, T0 is the control latency time before and T1 the latency time after administration of the compound, T2 is the cutoff time and MPE is the maximum possible effect. Employing variant analysis (repeated measures ANOVA) allowed testing of statistically significant differences between the compounds according to the invention and the vehicle group. The significance level was set to p≦0.05. To determine the dose dependency, the particular compound according to the invention was administered in 3-5 logarithmically increasing doses, including a threshold dose and a maximum effective dose, and the ED50 values were determined with the aid of regression analysis. The ED50 calculation was performed at the time of maximum efficacy (usually 20 min after administration of the compounds).

KCNQ2/3 channels = target: T1, KCNQ2/3 channels (Homo sapiens, UniProt O43525+O43526); assay: Fluorescence assay using a voltage sensitive dye (fluorimetry); assay type: cell-based; conditions: CHO-K1 cells expressing KCNQ2/3 channels; for Emax: relative to retigabine = 100%, read-out: Fluorimetry % efficacy (retigabine = 100%)
T1 construct: expressed in transfected cells; host or cells: CHO-K1
Description: Method I. Fluorescence Assay Using a Voltage Sensitive Dye (Fluorimetry)
[…] CHO-K1 cells expressing KCNQ2/3 channels are cultivated adherently at 37° C., 5% CO2 and 95% humidity in cell culture bottles (e.g. 80 cm^2 TC flasks, Nunc) with DMEM-high glucose (Sigma Aldrich, D7777) including 10% FCS (PAN Biotech, e.g. 3302-P270521) or alternatively MEM Alpha Medium (1×, liquid, Invitrogen, #22571), 10% fetal calf serum (FCS) (Invitrogen, #10270-106, heat-inactivated) and the necessary selection antibiotics.
Before being sown out for the measurements, the cells are washed with 1×DPBS buffer Ca^2+/Mg^2+-free (e.g. Invitrogen, #14190-094) and detached from the bottom of the culture vessel by using Accutase (PAA Laboratories, #L11-007) (incubation with Accutase for 15 min at 37° C.). The cell number is determined using a CASY™ cell counter (TCC, Schärfe System). Depending on the optimal density for each individual cell line, 20,000-30,000 cells/well/100 μl are seeded onto 96-well Corning™ CellBIND™ assay plates (Flat Clear Bottom Black Polystyrene Microplates, #3340). Freshly seeded cells are then left to settle for one hour at room temperature, followed by incubation for 24 hours at 37° C., 5% CO2 and 95% humidity.
The voltage-sensitive fluorescent dye from the Membrane Potential Assay Kit (Red™ Bulk format part R8123 for FLIPR, MDS Analytical Technologies™) is prepared by dissolving the contents of one vessel Membrane Potential Assay Kit Red Component A in 200 ml of extracellular buffer (ES buffer, 120 mM NaCl, 1 mM KCl, 10 mM HEPES, 2 mM CaCl2, 2 mM MgCl2, 10 mM glucose; pH 7.4). After removal of the nutrient medium, the cells are washed once with 200 μl of ES buffer, then loaded for 45 min at room temperature in 100 μl of dye solution in the dark.
Fluorescence measurements are carried out in a BMG Labtech FLUOstar™, BMG Labtech NOVOstar™ or BMG Labtech POLARstar™ instrument (525 nm excitation, 560 nm emission, Bottom Read mode). After incubation with the dye, 50 μl of the test substances in the desired concentrations, or 50 μl of ES buffer for control purposes, are applied to the wells of the assay plate and incubated for 30 min at room temperature while being shielded from light. The fluorescence intensity of the dye is then measured for 5 min and the fluorescence value F1 of each well is thus determined at a given, constant time. 15 μl of a KCl solution are then added to each well (final concentration of potassium ions 92 mM). The change in fluorescence intensity is subsequently monitored until all the relevant values have been obtained (mainly 5-30 min). At a given time post KCl application, a fluorescence value F2 is determined, in this case at the time of the fluorescence peak.
For calculation, the fluorescence intensity F2 is corrected for the fluorescence intensity F1, and the activity (ΔF/F) of the target compound on the potassium channel is determined as follows:
In order to determine whether a substance has agonistic activity,
[formula] can be related to
[formula] of control wells.
[formula] is determined by adding to the well only the buffer solution instead of the test substance, determining the value F1K of the fluorescence intensity, adding the potassium ions as described above, and measuring a value F2K of the fluorescence intensity. F2K and F1K are then calculated as follows: […]
A substance has an agonistic activity on the potassium channel if
[formula] is greater than
Independently of the comparison of
[formula] it is possible to conclude that a target compound has agonistic activity if
[formula] increases dose dependently.
Calculations of EC50 and IC50 values are carried out with the aid of ‘Prism v4.0’ software (Graph Pad Software™).

[2] = read-out: Low intensity tail flick, rat, peroral, MPE (dose)

Row | EC50 (KCNQ2/3 channels) | Emax (KCNQ2/3 channels) | SMILES | ED50 [1] | inhibition in vivo at 10 mg/kg [1, 2] | inhibition in vivo at 4.64 mg/kg [1, 2] | inhibition in vivo at 6.81 mg/kg ([1]; dose 6.81 mg/kg, read-out: Low intensity tail flick, rat, peroral, MPE (dose))
1 | 96 nM | 92% | COCCOc1nc2cc(C(F)(F)F)ccc2c(C)c1C(=O)NCc1cccc(F)c1 [Example 7, N-[(3-fluorophenyl)-methyl]-2-(2-methoxy-ethoxy)-4-methyl-7-(trifluoromethyl)-quinoline-3-carboxylic acid amide] | 10 mg/kg | – | – | –
2 | 106 nM | 159% | COc1nc2cc(C(F)(F)F)ccc2c(OC)c1C(=O)NCc1ccc(F)cc1 [Example 16, N-[(4-fluorophenyl)-methyl]-2,4-dimethoxy-7-(trifluoromethyl)-quinoline-3-carboxylic acid amide] | – | 74% | – | –
3 | 73 nM | 105% | COc1nc2cc(C(F)(F)F)ccc2c(C)c1C(=O)NCc1cccc(F)c1 [Example 4, N-[(3-fluorophenyl)-methyl]-2-methoxy-4-methyl-7-(trifluoromethyl)-quinoline-3-carboxylic acid amide] | 6.7 mg/kg | – | – | –
4 | 104 nM | 170% | CCOc1nc2cc(C(F)(F)F)ccc2c(OC)c1C(=O)NCc1cccc(F)c1 [Example 12, 2-ethoxy-N-[(3-fluorophenyl)-methyl]-4-methoxy-7-(trifluoremethyl)-quinoline-3-carboxylic acid amide] | – | – | 27% | –
5 | 58 nM | 132% | CCOc1nc2cc(C(F)(F)F)ccc2c(C)c1C(=O)NCc1cccc(F)c1 [Example 6, 2-ethoxy-N-[(3-fluorophenyl)-methyl]-4-methyl-7-(trifluoromethyl)-quinoline-3-carboxylic acid amide] | – | – | 67% | –
6 | 87 nM | 175% | Cc1c(C(=O)NCc2cccc(F)c2)c(OC(C)C)nc2cc(C(F)(F)F)ccc12 [Example 10, N-[(3-fluorophenyl)-methyl]-2-isopropoxy-4-methyl-7-(trifluoromethyl)-quinoline-3-carboxylic acid amide] | 3.8 mg/kg | – | – | –
7 | 72 nM | 146% | CCOc1nc2cc(C(F)(F)F)ccc2c(C)c1C(=O)NCc1ccc(C)c(F)c1 [Example 20, 2-ethoxy-N-[(3-fluoro-4-methyl-phenyl)-methyl]-4-methyl-7-(trifluoromethyl)-quinoline-3-carboxylic acid amide] | – | 24% | – | –
8 | 136 nM | 147% | COc1nc2cc(C(F)(F)F)ccc2c(OC)c1C(=O)NCc1cccc(F)c1 [Example 13, N-[(3-fluorophenyl)-methyl]-2,4-dimethoxy-7-(trifluoromethyl)-quinoline-3-carboxylic acid amide] | – | 10% | – | –
9 | 28 nM | 244% | COc1nc2cc(C(F)(F)F)ccc2c(C)c1C(=O)NCCCC(C)(C)C [Example 29, N-(4,4-dimethyl-pentyl)-2-methoxy-4-methyl-7-(trifluoromethyl)-quinoline-3-carboxylic acid amide] | – | 28% | – | –
10 | 25 nM | 108% | Cc1c(C(=O)NCc2cccc(F)c2)c(OCC(F)(F)F)nc2cc(C(F)(F)F)ccc12 [Example 50, N-[(3-fluorophenyl)-methyl]-4-methyl-2-(2,2,2-trifluoro-ethoxy)-7-(trifluoromethyl)-quinoline-3-carboxylic acid amide] | – | 24% | – | –
11 | 53 nM | 108% | CCOc1nc2cc(C(F)(F)F)ccc2c(C)c1C(=O)NCc1ccc(F)c(C)c1 [Example 24, 2-ethoxy-N-[(4-fluoro-3-methyl-phenyl)-methyl]-4-methyl-7-(trifluoromethyl)-quinoline-3-carboxylic acid amide] | – | – | – | 17%
12 | 390 nM | 119% | Cc1c(C(=O)NCc2cccc(F)c2)c(OCCO)nc2cc(C(F)(F)F)ccc12 [Example 9, N-[(3-fluorophenyl)-methyl]-2-(2-hydroxy-ethoxy)-4-methyl-7-(trifluoromethyl)-quinoline-3-carboxylic acid amide] | – | – | – | –
13 | 299 nM | 59% | COc1nc2cc(F)ccc2c(C)c1C(=O)NCc1ccc(F)cc1 [Example 46, 7-fluoro-N-[(4-fluorophenyl)-methyl]-2-methoxy-4-methyl-quinoline-3-carboxylic acid amide] | – | – | – | –
14 | 123 nM | 137% | COc1nc2cc(C(F)(F)F)ccc2c(C)c1C(=O)NCc1cccc(F)c1O [Example 42, N-[(3-fluoro-2-hydroxy-phenyl)-methyl]-2-methoxy-4-methyl-7-(trifluoromethyl)-quinoline-3-carboxylic acid amide] | – | – | – | –
15 | – | 57% | COc1nc2cc(C(F)(F)F)ccc2c(C)c1C(=O)NCCC(C)(C)C [Example 1, N-(3,3-dimethyl-butyl)-2-methoxy-4-methyl-7-(trifluoromethyl)-quinoline-3-carboxylic acid amide] | – | – | – | –
16 | 182 nM | 96% | COc1nc2cc(C(F)(F)F)ccc2c(C)c1C(=O)NCc1ccc(C)cc1 [Example 25, 2-methoxy-4-methyl-N-(p-tolyl-methyl)-7-(trifluoromethyl)-quinoline-3-carboxylic acid amide] | – | – | – | –
17 | 56 nM | 105% | CCOc1nc2cc(C#N)ccc2c(C)c1C(=O)NCc1cccc(F)c1 [Example 36, 7-cyano-2-ethoxy-N-[(3-fluorophenyl)-methyl]-4-methyl-quinoline-3-carboxylic acid amide] | – | – | – | –
18 | 131 nM | 117% | CCOc1nc2cc(C(F)(F)F)ccc2c(C)c1C(=O)NCc1ccc(C)cc1 [Example 26, 2-ethoxy-4-methyl-N-(p-tolyl-methyl)-7-(trifluoromethyl)-quinoline-3-carboxylic acid amide] | – | – | – | –
